Measurements reported in patent US5985937A, “Use of 2,4-distributed phenol derivatives as 5-lipoxygenase inhibitors” (priority 1994, dated 1999).

Tests used:
Format in all cases: in vivo, dog
canine arthrosis = test: clinical trial on canine arthrosis; parameters: key: +++: very good response, total recovery; ++: good response, functionability recovery; +: moderate response, improvement; -: negative response or no apparent improvement; conditions: 4 mg/kg day orally, 45 days
Experimental: (§1) After the diagnosis, each animal was treated with Bobel capsules during 45 days, with a follow up every 15 days. Blood, synovial liquid and urine samples were taken at the beginning and at the end of the treatment in order to perform the following tests: Synovial liquid analysis (cytology, cytokines 1,6,8 and TNF); LTB4; LTC4; PGE2; hematic count and leukocyte content; standard serum biochemistry; urine sediment; Rose-Wealer test; and radiology control. The methodology for clinical validation involved applying evaluating uniform parameters and classifying the results according to the following notations: (+++)=very good response, total recovery; (++)=good response, functionability recovery; (+)=moderate response, improvement; (-)=negative response or no apparent improvement.

canine arthritis = test: clinical trial on canine arthritis; parameters: key: +++: very good response, total recovery; ++: good response, functionability recovery; +: moderate response, improvement; -: negative response or no apparent improvement; conditions: 2 mg/kg day orally, 15 days
Experimental: as §1
After the diagnosis each animal was treated with capsules of Bobel-24 during 15 days. Blood, synovial liquid and urine samples were taken at the beginning and at the end of the treatment in order to perform the same tests as in example 13, using the same notation for the clinical evolution.

[1] = test system: canine seborrheic dermatitis; test: clinical trial on canine seborrheic dermatitis; parameters: key: +++: very good response, clinically cured; ++: good response, marked lowering in the clinical signs; +: moderate response, improvement; -: negative response or no apparent improvement; conditions: weekly bath 2% shampoo, 15 days
Experimental: The animals had been diagnosed to suffer from seborrheic dermatitis, and the diagnosis was confirmed by a biopsy. The treatment consisted of a weekly bath with a 2% Bobel-24 shampoo and evaluation of the treatment after 15 days. The efficiency of the treatment was analyzed evaluating the following therapeutic symptoms; removal of scabs and scales, greasiness reduction, sheborrheic odor reduction, relieve of the pruritus, and antiinflammatory effect. […] In view of the results the following conclusions were reached: […]

Oc1c(I)cc(I)cc1I [Bobel-24, 2,4,6-triiodophenol]
Evolution, spondolytis (canine arthrosis; Doge 3 years): +++
Evolution, broken muscle (canine arthrosis; German shepherd 2 years): +
Evolution, generalized arthrosis (canine arthrosis; German shepherd 10 years): ++
Evolution, rotular arthrosis (canine arthrosis; Mongrel 14 years): ++
Evolution, degenerative arthrosis (canine arthrosis; Poodle 11 years): +++
Evolution, broken crossed ligament (canine arthrosis; Poodle 15 years): +
Evolution, equine cauda (canine arthrosis; b309 Mastif 11 years, b317 Mongrel 13 years): +++
Evolution, arthrosis (canine arthrosis; b312 Rottwailer 1 year, b322 German shepherd 9 years): +++
Evolution, knee instability (canine arthritis; German shepherd 2 years): ++
Evolution, osteochondritis (canine arthritis; Mongrel 1 year): +++
Evolution, arthritis (canine arthritis; b340 Mongrel 8, b342 German shepherd 6, b343 Rottwailer 1, b347 Mongrel 7 years): +++
Evolution, etiology allergic ([1]; b363 Poodle 6, b364 Mongrel 14, b374 Mongrel 10, b376 Belgian shepherd 10, b382 Poodle 9, b392 Mongrel 5 years): ++
Evolution, etiology leishmania ([1]; b369 German shepherd 10, b377 Pekinese 11, b379 German shepherd 3 years): ++
